US20140336253A1, “COMPOSITION FOR TRANSDERMAL ADMINISTRATION OF RIVASTIGMINE” (priority 2011, published 2014)

Experiment: Transdermal delivery and tolerability of Rivastigmine patches
Format: in vivo

CCN(C)C(=O)Oc1cccc([C@H](C)N(C)C)c1 [Rivastigmine, (S)-{3-[α-(Dimethylamino)ethyl]phenyl}-N-ethyl-N-methylcarbamate]
tolerability (dose of 36 mg free base in up to 80 cm^2 of patches): well tolerated
amount absorbed (patches containing 36 mg Rivastigmine, up to 80 cm^2): 12 mg
